Measured values from PMC3214022, “Plasmodium falciparum Parasites Are Killed by a Transition State Analogue of Purine Nucleoside Phosphorylase in a Primate Animal Model” (PLoS ONE, 2011).
Values joined by “and” are separate entries in the source; they are usually repeats but may differ in a detail not shown here. Equal values may be shown once.

Assay: Weights, CBC and blood chemistry, Table S1 sheet PD-1 (efficacy study in P. falciparum-infected Aotus)
Assay type: in vivo, Aotus lemurinus lemurinus
Description: Laboratory bred Aotus lemurinus lemurinus monkeys (0.75–0.89 kg) were maintained as described. […] Blood samples were collected before the treatment started (t = 0), 0.05 h, 0.5 h, 1 h, 2 h, 6 h, 24 h, 48 h, and 6, 12 and 18 days after the first dose from each monkey and processed as described below. Pharmacokinetic parameters were calculated using PKSolver. For efficacy studies, Aotus monkeys were inoculated intravenously with 5×10^6 parasites of the FVO strain of P. falciparum in an approved treatment protocol. […] Parasitaemia was determined by Giemsa-stained thick blood smears prepared daily from the marginal ear vein [41]. Blood samples were collected from each monkey and transferred to tubes containing lithium heparin, centrifuged and both plasma and blood cells were frozen at −80 °C until analysis. Animals received a physical examination and blood chemistry profiles were monitored after treatment as described previously. Any monkey not responding appropriately to treatment was cured of its infection with mefloquine (40 mg kg^−1). […] The day of clearance is defined as the first of three consecutive days in which the thick blood films are parasite negative. The day of recrudescence is the first of three consecutive days of positive thick blood films after a period of clearance. Suppression is defined as a transient decrease in the parasite count post-treatment without clearance.

[1] = IV 10 mg/kg once a day/3 days, day -2, 10 mg/kg
[2] = oral 50 mg/kg once a day/3 days, day 9, 50 mg/kg
[3] = oral 50 mg/kg once a day/3 days, day 12, 50 mg/kg
[4] = oral 50 mg/kg once a day/3 days, day 19, 50 mg/kg
[5] = oral 50 mg/kg once a day/3 days, day 25, 50 mg/kg
[6] = oral 50 mg/kg once a day/3 days, day -2, 50 mg/kg

Nc1nc2c(CN3CC(O)C(CO)C3)c[nH]c2c(=O)[nH]1 (centres unmarked) [BCX4945, 4′-deaza-1′-aza-2′-deoxy-1′-(9-methylene)-Immucillin-G]
Mean Platelet Volume [1]: 14.7 fL and 12.2 fL and 11 fL and 10.9 fL and 13.1 fL
Monocytes (%) [1]: 5.1% and 3.6% and 2.9% and 6.5% and 4.2%
Monocytes (x 103/ul) [1]: 0.9 x 103/ul and 0.8 x 103/ul and 0.6 x 103/ul and 0.5 x 103/ul and 0.7 x 103/ul
Platelets [1]: 354000 µL⁻¹ and 250000 µL⁻¹ and 406000 µL⁻¹ and 431000 µL⁻¹ and 270000 µL⁻¹ and 371000 µL⁻¹
Red Cell Distribution Width [1]: 12.5% and 12.2% and 11.4% and 12.4% and 12%
Reticulocytes [1]: 1.9% and 1% and 1.5% and 1.2% and 1.3%
WEIGHT [1]: 680 g and 766 g and 832 g and 849 g and 684 g
Blood Urea Nitrogen [2]: 14.3 mg/dL and 15 mg/dL and 13.15 mg/dL
Creatinine [2]: 0.672 mg/dL and 0.825 mg/dL and 0.587 mg/dL
Erythrocytes [2]: 4.76e+06 µL⁻¹ and 5.14e+06 µL⁻¹ and 3.94e+06 µL⁻¹
Granulocytes (%) [2]: 21.7% and 25.8% and 21.1%
Granulocytes (x 103/ul) [2]: 4.4 x 103/ul and 2.3 x 103/ul and 3.3 x 103/ul
Hematocrit [2]: 38.1% and 39.5% and 32.5%
Hemoglobin [2]: 12.9 g/dL and 13.5 g/dL and 10.8 g/dL
Lymphocytes (%) [2]: 61% and 66.1% and 63.4%
Mean Corpuscular Hemoglobin [2]: 27.1 pg and 26.3 pg and 27.5 pg
Mean Corpuscular Volume [2]: 80.1 fL and 76.8 fL and 82.4 fL
Mean Hemoglobin Content [2]: 33.8 g/dL and 34.2 g/dL and 33.4 g/dL
Mean Platelet Volume [2]: 11 fL and 13.9 fL
Monocytes (%) [2]: 17.3% and 8.1% and 15.5%
Red Cell Distribution Width [2]: 13.3% and 12% and 10.8%
Reticulocytes [2]: 2.5% and 1.1% and 1%
WEIGHT [2]: 851 g and 873 g and 776 g
Blood Urea Nitrogen [3]: 23.05 mg/dL and 23.55 mg/dL and 26.95 mg/dL
Creatinine [3]: 0.563 mg/dL and 0.686 mg/dL and 0.565 mg/dL
Erythrocytes [3]: 4.04e+06 µL⁻¹ and 4.25e+06 µL⁻¹ and 2.77e+06 µL⁻¹
Glutamate Pyruvate Transaminase [3]: 46.7 U/L and 46.1 U/L and 37.8 U/L
Granulocytes (%) [3]: 17.9% and 26.3% and 14.8%
Hematocrit [3]: 33.2% and 32.4% and 22.7%
Hemoglobin [3]: 7.7 g/dL
Leucocytes [3]: 42000 µL⁻¹ and 22200 µL⁻¹ and 22000 µL⁻¹
Lymphocytes (%) [3]: 68.1% and 66.2% and 76.8%
Lymphocytes (x 103/ul) [3]: 28.6 x 103/ul and 14.7 x 103/ul and 16.9 x 103/ul
Mean Corpuscular Hemoglobin [3]: 27.7 pg and 26.4 pg and 27.6 pg
Mean Corpuscular Volume [3]: 82.1 fL and 76.4 fL and 81.9 fL
Mean Hemoglobin Content [3]: 33.7 g/dL and 34.5 g/dL
Mean Platelet Volume [3]: 11.3 fL and 14.6 fL and 11.8 fL
Monocytes (%) [3]: 14% and 7.5% and 8.4%
Red Cell Distribution Width [3]: 13.4% and 11.3%
Reticulocytes [3]: 1.9% and 2% and 2.3%
WEIGHT [3]: 800 g and 804 g and 738 g
Blood Urea Nitrogen [4]: 16.75 mg/dL and 18.3 mg/dL and 27.85 mg/dL
Creatinine [4]: 0.614 mg/dL and 0.695 mg/dL and 0.678 mg/dL
Erythrocytes [4]: 3.94e+06 µL⁻¹ and 4.96e+06 µL⁻¹ and 3.82e+06 µL⁻¹
Granulocytes (%) [4]: 9.6% and 17.6% and 10.1%
Hematocrit [4]: 35.3% and 41.8% and 36.2%
Hemoglobin [4]: 11.5 g/dL and 14 g/dL and 11.6 g/dL
Lymphocytes (%) [4]: 79% and 75.3% and 78.4%
Mean Corpuscular Hemoglobin [4]: 29.3 pg and 28.3 pg and 30.3 pg
Mean Corpuscular Volume [4]: 89.8 fL and 84.2 fL and 94.8 fL
Mean Hemoglobin Content [4]: 32.6 g/dL and 33.6 g/dL and 32 g/dL
Mean Platelet Volume [4]: 12.3 fL and 13.3 fL and 19.7 fL
Monocytes (%) [4]: 11.4% and 11.5%
Monocytes (x 103/ul) [4]: 6.8 x 103/ul and 3.9 x 103/ul
Red Cell Distribution Width [4]: 22.7% and 21.9% and 24.4%
Reticulocytes [4]: 1.7% and 1.6% and 1.8%
WEIGHT [4]: 832 g and 847 g and 757 g
Blood Urea Nitrogen [5]: 24.4 mg/dL and 16 mg/dL and 21 mg/dL
Creatinine [5]: 0.52 mg/dL and 0.578 mg/dL and 0.663 mg/dL
Erythrocytes [5]: 4.62e+06 µL⁻¹ and 4.69e+06 µL⁻¹ and 5.44e+06 µL⁻¹
Glutamate Pyruvate Transaminase [5]: 17.7 U/L and 27.2 U/L
Hematocrit [5]: 40.4% and 41.4% and 44.4%
Hemoglobin [5]: 13.5 g/dL and 14 g/dL and 15.5 g/dL
Leucocytes [5]: 15400 µL⁻¹ and 16400 µL⁻¹ and 15300 µL⁻¹
Lymphocytes (%) [5]: 65.9% and 79.6% and 75.3%
Lymphocytes (x 103/ul) [5]: 10.1 x 103/ul and 13.1 x 103/ul and 11.5 x 103/ul
Mean Corpuscular Hemoglobin [5]: 29.3 pg and 29.8 pg and 28.6 pg
Mean Corpuscular Volume [5]: 87.4 fL and 88.1 fL and 81.7 fL
Mean Hemoglobin Content [5]: 33.5 g/dL and 33.7 g/dL and 35 g/dL
Mean Platelet Volume [5]: 14.1 fL
Monocytes (%) [5]: 7.3% and 7% and 11.7%
Monocytes (x 103/ul) [5]: 1.1 x 103/ul and 1.8 x 103/ul
Red Cell Distribution Width [5]: 19.2% and 20.4% and 17.9%
Reticulocytes [5]: 1.3% and 2.1% and 2%
WEIGHT [5]: 748 g and 818 g and 853 g
Mean Platelet Volume (oral 50 mg/kg once a day/3 days, day -2): 12.8 fL
Blood Urea Nitrogen [6]: 18 mg/dL and 23.05 mg/dL
Creatinine [6]: 0.679 mg/dL and 0.554 mg/dL
Erythrocytes [6]: 7.17e+06 µL⁻¹ and 6.1e+06 µL⁻¹ and 5.2e+06 µL⁻¹
Granulocytes (%) [6]: 33.3% and 31.8% and 22.4%
Hematocrit [6]: 54.4% and 48% and 42.5%
Hemoglobin [6]: 19.3 g/dL and 17 g/dL and 14.7 g/dL
Leucocytes [6]: 16900 µL⁻¹ and 15400 µL⁻¹ and 11300 µL⁻¹
Lymphocytes (%) [6]: 61.5% and 64.5% and 73.1%
Lymphocytes (x 103/ul) [6]: 10.4 x 103/ul and 9.9 x 103/ul and 8.3 x 103/ul
Mean Corpuscular Hemoglobin [6]: 26.8 pg and 27.8 pg and 28.2 pg
Mean Corpuscular Volume [6]: 75.8 fL and 78.6 fL and 81.7 fL
Mean Hemoglobin Content [6]: 35.4 g/dL and 34.6 g/dL
Mean Platelet Volume [6]: 10.2 fL and 10.4 fL
Monocytes (%) [6]: 5.2% and 3.7% and 4.5%
Monocytes (x 103/ul) [6]: 0.9 x 103/ul and 0.6 x 103/ul and 0.5 x 103/ul
Platelets [6]: 463000 µL⁻¹ and 389000 µL⁻¹ and 372000 µL⁻¹
Red Cell Distribution Width [6]: 11.8% and 13.6% and 10.4%
Reticulocytes [6]: 1.8% and 2% and 1.7%
WEIGHT [6]: 804 g and 800 g and 738 g
